Structures are written as SMILES. Read-outs that look alike come from different tables or passages of the source.

Experiment [1] deals with Phosphorylation of ERK1/2 in MIA PaCa-2 cells. In words: Phospho-ERK1/2 MSD assay in MIA PaCa-2 cells. The class given is cell-based. As to conditions: read-out: p-ERK IC50 (2 h; MIA PaCa-2), 2 h compound treatment. In a few lines: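 IC50 comes from a 4-parameter logistic fit of MSD phospho-ERK1/2 signal in lysates. Before lysis, MIA PaCa-2 or A549 cells were exposed to titrated compound for 2 or 4 h at 37 °C, followed by a 10 min 10 ng/mL EGF stimulus.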

In experiment [2] the target is GDP-bound KRAS protein (aa 1-169), containing both G12C and C118A amino acid substitutions (Homo sapiens, UniProt P01116, C118A/G12C). The experiment in a line: Coupled nucleotide exchange assay (SOS-mediated, AlphaScreen). As to conditions: 5 min compound pre-incubation; for IC50: read-out: Coupled exchange IC50 (5 min). In kind it is biochemical. (In general: Alpha assays give light when donor and acceptor beads are brought close together.)
Sequence of GDP-bound KRAS protein (aa 1-169), containing both G12C and C118A amino acid substitutions (P01116 1-169 isoform P01116-2 G12C/C118A): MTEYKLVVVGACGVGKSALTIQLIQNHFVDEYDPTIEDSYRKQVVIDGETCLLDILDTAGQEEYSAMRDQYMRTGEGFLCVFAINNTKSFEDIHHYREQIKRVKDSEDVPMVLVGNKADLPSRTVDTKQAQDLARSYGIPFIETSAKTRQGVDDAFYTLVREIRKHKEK

A word on the IC50: it is the concentration that gives 50% inhibition. With `Cc1ccnc(C(C)C)c1-n1c(=O)nc(N2CCN(C(=O)/C=C/CN(C)C)C[C@@H]2C)c2cc(F)c(-c3c(O)cccc3F)nc21` (atropisomer, axis not shown; (M)) [Example 145, (M)-4-((2S)-4-((2E)-4-(Dimethylamino)-2-butenoyl)-2-methyl-piperazinyl)-6-fluoro-7-(2-fluoro-6-hydroxyphenyl)-1-(4-methyl-2-(2-propanyl)-3-pyridinyl)pyrido[2,3-d]pyrimidin-2(1H)-one], the figures for the half-maximal inhibitory concentration (IC50) in experiment [1] and in experiment [2] were 3920 nM and 952 nM, respectively.
Consider `C=CC(=O)N1CCN(c2nc(=O)n(-c3c(C)ccnc3C(C)C)c3nc(-c4cc(C(=O)NC5CC5)ccc4F)c(Cl)cc23)[C@@H](C)C1` (atropisomer, axis not shown; (M)) [Example 73-10, (M)-3-(6-chloro-1-(4-methyl-2-(2-propanyl)-3-pyridinyl)-4-((2S)-2-methyl-4-(2-propenoyl)-1-piperazinyl)-2-oxo-1,2-dihydropyrido[2,3-d]pyrimidin-7-yl)-N-cyclopropyl-4-fluorobenzamide], for which the IC50 in experiment [1] (Homo sapiens, MIA PaCa-2, 2 h) was determined as 544 nM. In addition, in experiment [2], the “Coupled exchange IC50 (5 min)” value is given as 0.385 | nda μM.
Consider `C=CC(=O)N1CCN(c2nc(=O)n(-c3c(C(C)C)ccnc3C)c3nc(-c4ccccc4F)c(Cl)cc23)[C@@H](C)C1` [Example 54-18, 6-chloro-7-(2-fluorophenyl)-1-(2-methyl-4-(2-propanyl)-3-pyridinyl)-4-((2S)-2-methyl-4-(2-propenoyl)-1-piperazinyl) pyrido[2,3-d]pyrimidin-2(1H)-one], for which the IC50 in experiment [1] (Homo sapiens, MIA PaCa-2, 2 h) came to 81 nM. Besides, the “Coupled exchange IC50 (5 min)” value in experiment [2] is given as 0.087 | nda μM.
Turning to `C=CC(=O)N1CCN(c2nc(=O)n(-c3c(C)cnn3C(C)(C)C)c3nc(-c4ccccc4F)c(Cl)cc23)[C@@H](C)C1` (single isomer, unassigned) [Example 55-38-2], in experiment [1] (Homo sapiens, MIA PaCa-2, 2 h), the IC50 is 108 nM. For the same compound, the “Coupled exchange IC50 (5 min)” value in experiment [2] is 0.133 | nda μM.
For `C=CC(=O)N1CCN(c2nc(=O)n(-c3c(C)cccc3CC)c3nc(-c4c(O)cccc4F)c(F)cc23)[C@@H](C)C1` (single isomer, unassigned) [Example 57-14-1] the same measures were 348 nM and 0.288 | nda μM.
In the case of `C=CC(=O)N1CCN(c2nc(=O)n(-c3ccccc3C3(C)CC3)c3nc(-c4c(O)cccc4F)c(Cl)cc23)[C@@H](C)C1` (single isomer, unassigned) [Example 54-97-1], in experiment [1], the IC50 worked out at 1020 nM. The “Coupled exchange IC50 (5 min)” value in experiment [2] is listed as 0.971 | nda μM.
Turning to `C=CC(=O)N1CCN(c2nc(=O)n(-c3c(C(C)C)ncnc3N(C)C)c3nc(-c4ccccc4F)c(Cl)cc23)[C@@H](C)C1` (single isomer, unassigned) [Example 140-1], the IC50 in experiment [1] (Homo sapiens, MIA PaCa-2, 2 h) amounted to 47 nM. The “Coupled exchange IC50 (5 min)” value in experiment [2] was 0.073 | nda μM.
For `C=CC(=O)N1CCN(c2nc(=O)n(-c3nccnc3CC)c3nc(-c4ccccc4F)c(Cl)cc23)[C@@H](C)C1` [Example 54-38, 6-chloro-1-(3-ethyl-2-pyrazinyl)-7-(2-fluorophenyl)-4-((2S)-2-methyl-4-(2-propenoyl)-1-piperazinyl) pyrido[2,3-d]pyrimidin-2(1H)-one] the same measures were 297 nM and 0.651 | nda μM.
Regarding `C=CC(=O)N1CCN(c2nc(=O)n(-c3c(C)ccnc3C(C)C)c3nc(-c4cc(OC(F)(F)F)ccc4F)c(Cl)cc23)[C@@H](C)C1` (atropisomer, axis not shown; (M)) [Example 73-7, (M)-6-chloro-7-(2-fluoro-5-(trifluoromethoxy)phenyl)-1-(4-methyl-2-(2-propanyl)-3-pyridinyl)-4-((2S)-2-methyl-4-(2-propenoyl)-1-piperazinyl)pyrido[2,3-d]pyrimidin-2(1H)-one], in experiment [1] (Homo sapiens, MIA PaCa-2, 2 h), the IC50 is 375 nM. In experiment [2], the “Coupled exchange IC50 (5 min)” value is 0.241 | nda μM.
For `C=CC(=O)N1CCN(c2nc(=O)n(-c3c(C)ccnc3C(C)C)c3nc(-c4ccccc4F)c(Cl)cc23)C(CF)C1` (single isomer, unassigned) [Example 78-5, (M)-6-chloro-4-(2-(fluoromethyl)-4-(2-propenoyl)-1-piperazinyl)-7-(2-fluorophenyl)-1-(4-methyl-2-(2-propanyl)-3-pyridinyl)pyrido[2,3-d]pyrimidin-2(1H)-one], the IC50 in experiment [1] (Homo sapiens, MIA PaCa-2, 2 h) was determined as 2610 nM. Besides, the “Coupled exchange IC50 (5 min)” value in experiment [2] is 0.349 | nda μM.
For `C=CC(=O)N1CCN(c2nc(=O)n(-c3c(C)ccnc3C(C)C)c3nc(-c4c(O)cccc4F)c(C)cc23)[C@@H](C)C1` [Example 74-3, 7-(2-fluoro-6-hydroxyphenyl)-6-methyl-1-(4-methyl-2-(2-propanyl)-3-pyridinyl)-4-((2S)-2-methyl-4-(2-propenoyl)-1-piperazinyl)pyrido[2,3-d]pyrimidin-2(1H)-one] the same measures were 347 nM and 0.136 | nda μM.
Consider `C=CC(=O)N1CCN(c2nc(=O)n(-c3c(CN(C)C)ccnc3C(C)C)c3nc(-c4ccccc4F)c(Cl)cc23)[C@@H](C)C1` (atropisomer, axis not shown; (M)) [Example 152, (M)-6-Chloro-1-(4-((dimethylamino)methyl)-2-(2-propanyl)-3-pyridinyl)-7-(2-fluorophenyl)-4-((2S)-2-methyl-4-(2-propenoyl)-1-piperazinyl)pyrido[2,3-d]pyrimidin-2(1H1)-one], for which the results for the IC50 in experiment [1] and in experiment [2] were 21 nM and 84 nM, respectively.
For `C=CC(=O)N1CCN(c2nc(=O)n(-c3c(C)ccnc3C(C)C)c3nc(-c4c(O)cccc4F)c(F)cc23)C[C@H]1C` (single isomer, unassigned) [Example 75-2], the IC50 in experiment [1] (Homo sapiens, MIA PaCa-2, 2 h) was found to be 306 nM. In addition, the “Coupled exchange IC50 (5 min)” value in experiment [2] is 0.493 | nda μM.
For `C=CC(=O)N1CCN(c2nc(=O)n(-c3nonc3C(C)C)c3nc(-c4c(O)cccc4F)c(Cl)cc23)[C@@H](C)C1` [Example 54-52, 6-chloro-7-(2-fluoro-6-hydroxyphenyl)-4-((2S)-2-methyl-4-(2-propenoyl)-1-piperazinyl)-1-(4-(2-propanyl)-1,2,5-oxadiazol-3-yl)pyrido[2,3-d]pyrimidin-2(1H)-one] the same measures were 666 nM and 0.445 | nda μM.
In the same order, the values of `C=CC(=O)N1CCN(c2nc(=O)n(-c3c(C)cccc3C(C)C)c3nc(-c4cc(F)c(F)cc4O)c(Cl)cc23)[C@@H](C)C1` (single isomer, unassigned) [Example 64-2] are 258 nM and 0.151 | nda μM.
In the same order, the values of `C=CC(=O)N1CCN(c2nc(=O)n(-c3ccccc3C(C)C)c3nc(-c4cc(OC)ccc4Cl)c(Cl)cc23)[C@@H](C)C1` [Example 54-89, 6-chloro-7-(2-chloro-5-methoxy-phenyl)-4-((2S)-2-methyl-4-(2-propenoyl)-1-piperazinyl)-1-(2-(2-propanyl)phenyl)pyrido [2,3-d]pyrimidin-2(1H)-one] are 212 nM and 0.271 | nda μM.
Take `C=CC(=O)N1CCN(c2nc(=O)n(-c3ccccc3C(C)C)c3nc(-c4cc(O)ccc4Cl)c(Cl)cc23)[C@@H](C)C1` [Example 54-90, 6-chloro-7-(2-chloro-5-hydroxy-phenyl)-4-((2S)-2-methyl-4-(2-propenoyl)-1-piperazinyl)-1-(2-(2-propanyl)phenyl)pyrido [2,3-d]pyrimidin-2(1H)-one]: the IC50 in experiment [1] (Homo sapiens, MIA PaCa-2, 2 h) is 121 nM. For the same compound, the “Coupled exchange IC50 (5 min)” value in experiment [2] is given as 0.105 | nda μM.
In the same order, the values of `C=CC(=O)N1CCN(c2nc(=O)n(-c3cncnc3C3(C)CC3)c3nc(-c4ccccc4F)c(Cl)cc23)[C@@H](C)C1` [Example 54-54, 6-chloro-7-(2-fluorophenyl)-1-(4-(1-methyl-cyclopropyl)-5-pyrimidinyl)-4-((2S)-2-methyl-4-(2-propenoyl)-1-piperazinyl) pyrido[2,3-d]pyrimidin-2(1H)-one] are 360 nM and 0.377 | nda μM.
For `C=CC(=O)N1CCN(c2nc(=O)n(-c3ccccc3C(C)C)c3nc(-c4ccccc4F)c(C)cc23)[C@@H](C)C1` [Example 74-1, 7-(2-Fluorophenyl)-6-methyl-4-((2S)-2-methyl-4-(2-propenoyl)-1-piperazinyl)-1-(2-(2-propanyl)phenyl)pyrido[2,3-d]pyrimidin-2(1H)-one] the same measures were 621 nM and 0.951 | nda μM.
In the same order, the values of `C=CC(=O)N1CCN(c2nc(=O)n(-c3c(C)ccnc3CC)c3nc(-c4c(O)cccc4F)c(F)cc23)[C@@H](C)C1` (single isomer, unassigned) [Example 57-1-1] are 630 nM and 0.524 | nda μM.
For the compound `C=CC(=O)N1CCN(c2nc(=O)n(-c3ccccc3C(C)C)c3nc(-c4cc(F)ccc4O)c(Cl)cc23)[C@@H](C)C1` (single isomer, unassigned) [Example 54-78-2], in experiment [1] (Homo sapiens, MIA PaCa-2, 2 h), the IC50 came out at 311 nM. Further, in experiment [2], the “Coupled exchange IC50 (5 min)” value is given as 0.212 | nda μM.
As for `C=CC(=O)N1CCN(c2nc(=O)n(-c3c(C)ccnc3C(C)C)c3nc(-c4ccccc4F)c(F)cc23)[C@@H](C)C1` (single isomer, unassigned) [Example 58-4-1], in experiment [1] (Homo sapiens, MIA PaCa-2, 2 h), the IC50 came out at 114 nM. For the same compound, the “Coupled exchange IC50 (5 min)” value in experiment [2] is given as 0.212 | nda μM.
In the same order, the values of `C=CC(=O)N1CCN(c2nc(=O)n(-c3c(C)ncnc3C(C)C)c3nc(-c4cc(F)ccc4F)c(Cl)cc23)[C@@H](C)C1` [Example 55-39, 6-chloro-7-(2,5-difluorophenyl)-1-(4-methyl-6-(2-propanyl)-5-pyrimidinyl)-4-((2S)-2-methyl-4-(2-propenoyl)-1-piperazinyl)pyrido[2,3-d]pyrimidin-2(1H)-one] are 271 nM and 0.292 | nda μM.

Source of the values: US11090304B2 (Amgen Inc., priority 2018, dated 2021).
